The values that follow come from patent US10787447B2, “Pharmaceutical compounds” (Heptares Therapeutics Limited, priority 2018, dated 2020).

Broadly, the EC50 is the concentration needed to bring the measured effect to its halfway point. The low end stands for greater potency, the high end for weaker potency. Usually Emax stands for the size of the effect at its maximum, as opposed to the concentration needed.

Holding throughout (type): cell-based
Assay [1] addresses T1, human muscarinic M1 receptor (Homo sapiens, UniProt P11229).
T1 sequence (P11229 1-460): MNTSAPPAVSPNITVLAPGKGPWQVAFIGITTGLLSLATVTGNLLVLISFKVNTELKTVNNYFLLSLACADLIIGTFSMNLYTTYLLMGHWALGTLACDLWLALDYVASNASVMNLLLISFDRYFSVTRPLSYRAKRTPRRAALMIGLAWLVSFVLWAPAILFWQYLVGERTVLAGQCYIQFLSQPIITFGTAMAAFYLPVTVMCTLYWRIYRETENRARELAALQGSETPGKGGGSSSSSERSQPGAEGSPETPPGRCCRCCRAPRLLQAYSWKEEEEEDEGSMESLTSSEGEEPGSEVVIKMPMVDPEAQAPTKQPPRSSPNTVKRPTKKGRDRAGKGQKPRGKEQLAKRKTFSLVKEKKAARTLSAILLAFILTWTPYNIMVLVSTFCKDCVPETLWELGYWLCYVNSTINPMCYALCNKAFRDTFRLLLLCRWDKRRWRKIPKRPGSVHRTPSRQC
In words: Alphascreen Surefire phospho-ERK1/2 functional assay, M1. The conditions noted are these: for % Emax cf. ACh, M1: CHO cells stably expressing human M1; for EC50: pEC50 M1, CHO cells stably expressing human M1, phospho-ERK1/2. The gist of the method:
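Stably transfected CHO cells, serum-starved overnight, then exposed to agonist for 5 min at 37 °C. Cells lysed and phospho-ERK1/2 measured by AlphaScreen SureFire.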
On the technique in general: In Alpha technology, singlet oxygen from a donor bead excites a nearby acceptor bead.

For assay [2], the target named is T2, human muscarinic M2 receptor (Homo sapiens, UniProt P08172).
T2 sequence (P08172 1-466): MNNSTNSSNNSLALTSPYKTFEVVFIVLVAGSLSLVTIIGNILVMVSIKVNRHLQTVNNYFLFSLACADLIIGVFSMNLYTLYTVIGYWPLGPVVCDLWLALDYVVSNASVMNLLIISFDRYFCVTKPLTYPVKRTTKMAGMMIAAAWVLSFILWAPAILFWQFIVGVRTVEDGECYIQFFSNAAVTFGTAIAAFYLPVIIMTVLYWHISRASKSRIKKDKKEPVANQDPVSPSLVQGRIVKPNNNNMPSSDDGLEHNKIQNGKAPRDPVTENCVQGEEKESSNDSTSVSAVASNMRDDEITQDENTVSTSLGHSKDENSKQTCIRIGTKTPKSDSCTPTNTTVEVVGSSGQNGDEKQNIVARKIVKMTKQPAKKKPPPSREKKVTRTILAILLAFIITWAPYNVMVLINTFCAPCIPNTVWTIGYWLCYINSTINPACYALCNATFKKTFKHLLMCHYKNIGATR
In words: Alphascreen Surefire phospho-ERK1/2 functional assay, M2. As to conditions: for % Emax cf. ACh, M2: CHO cells stably expressing human M2; for EC50: pEC50 M2, CHO cells stably expressing human M2, phospho-ERK1/2. The procedure, abridged:
(§1)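 CHO cells stably expressing human M1, M2, M3 or M4 receptor, serum-starved overnight, then stimulated with agonist for 5 min at 37 °C. Cells lysed for 15 min and phospho-ERK1/2 detected in the lysate by AlphaScreen SureFire.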

The target in assay [3] is T3, human muscarinic M3 receptor (Homo sapiens, UniProt P20309).
T3 construct: expressed in transfected cells
In words: Alphascreen Surefire phospho-ERK1/2 functional assay, M3. As to conditions: for % Emax cf. ACh, M3: CHO cells stably expressing human M3; for EC50: pEC50 M3, CHO cells stably expressing human M3, phospho-ERK1/2. The procedure, abridged:
as §1

Assay [4] deals with T4, human muscarinic M4 receptor (Homo sapiens, UniProt P08173).
T4 sequence (P08173 1-479): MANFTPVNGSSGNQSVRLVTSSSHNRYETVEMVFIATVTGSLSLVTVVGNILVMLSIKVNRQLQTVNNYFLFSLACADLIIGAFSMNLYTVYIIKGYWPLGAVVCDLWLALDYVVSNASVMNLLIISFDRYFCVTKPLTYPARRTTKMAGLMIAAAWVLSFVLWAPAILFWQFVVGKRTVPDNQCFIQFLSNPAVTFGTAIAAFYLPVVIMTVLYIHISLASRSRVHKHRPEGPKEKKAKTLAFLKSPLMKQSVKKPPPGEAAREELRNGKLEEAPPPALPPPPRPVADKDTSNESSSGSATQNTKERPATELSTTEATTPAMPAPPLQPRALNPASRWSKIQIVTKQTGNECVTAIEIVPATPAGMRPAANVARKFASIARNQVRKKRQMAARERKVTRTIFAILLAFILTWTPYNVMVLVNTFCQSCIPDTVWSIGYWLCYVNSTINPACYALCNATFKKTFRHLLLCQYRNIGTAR
Kind of assay: Alphascreen Surefire phospho-ERK1/2 functional assay, M4. As to conditions: for % Emax cf. ACh, M4: CHO cells stably expressing human M4; for EC50: pEC50 M4, CHO cells stably expressing human M4, phospho-ERK1/2. The gist of the method: as §1

Setting [5] is: Emax relative to ACh, listed as 6-6 Isomer 1.
[6] abbreviates: Emax relative to ACh, listed as 6-6 Isomer 2.
Where [7] appears, read: Emax relative to ACh, listed as 6-7 Isomer 1.
Setting [8] is: Emax relative to ACh, listed as 6-7 Isomer 2.

Some results are limits rather than exact numbers.

T3 sequence (P20309 whole entry): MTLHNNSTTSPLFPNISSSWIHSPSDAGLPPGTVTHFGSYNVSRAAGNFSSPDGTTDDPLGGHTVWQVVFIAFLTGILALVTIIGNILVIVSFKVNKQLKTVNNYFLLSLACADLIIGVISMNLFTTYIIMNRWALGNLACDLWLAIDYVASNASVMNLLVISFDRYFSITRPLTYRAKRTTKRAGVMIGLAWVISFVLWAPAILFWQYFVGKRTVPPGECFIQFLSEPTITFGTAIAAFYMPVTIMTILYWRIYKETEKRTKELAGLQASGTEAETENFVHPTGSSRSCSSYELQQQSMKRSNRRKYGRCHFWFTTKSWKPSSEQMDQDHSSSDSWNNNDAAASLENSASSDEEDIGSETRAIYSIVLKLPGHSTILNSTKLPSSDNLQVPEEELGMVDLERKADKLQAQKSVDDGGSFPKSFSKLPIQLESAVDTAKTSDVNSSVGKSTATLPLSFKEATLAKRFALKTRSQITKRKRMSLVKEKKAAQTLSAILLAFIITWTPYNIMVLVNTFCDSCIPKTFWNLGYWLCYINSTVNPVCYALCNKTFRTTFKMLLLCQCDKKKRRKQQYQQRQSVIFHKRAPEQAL

With `CCOC(=O)N1C2COCC1CC(N1CCC(N3CCCCC3=O)CC1)C2` (single isomer, unassigned) [Example 6-6 Isomer 1, Ethyl 7-(2-oxo-1,4′-bipiperidin-1′-yl)-3-oxa-9-azabicyclo[3.3.1]nonane-9-carboxylate], the “% Emax cf. ACh, M1” value in assay [1] (setting [5]) is 103%. Moreover, the EC50 was 251 nM in assay [1], 339 nM in assay [2], more than 20000 nM in assay [3] and 19.1 nM in assay [4]. In addition, the “% Emax cf. ACh, M2” value in assay [2] (setting [5]) was 60%. Besides, the “% Emax cf. ACh, M3” value in assay [3] (setting [5]) stood at 7%. Also, the “% Emax cf. ACh, M4” value in assay [4] (setting [5]) was 109%.
For the compound `CCOC(=O)N1C2COCC1CC(N1CCC(N3CCCCC3=O)CC1)C2` (single isomer, unassigned) [Example 6-6 Isomer 2, Ethyl 7-(2-oxo-1,4′-bipiperidin-1′-yl)-3-oxa-9-azabicyclo[3.3.1]nonane-9-carboxylate], the “% Emax cf. ACh, M1” value in assay [1] (setting [6]) is given as 50%. Moreover, the EC50 is 977 nM in assay [1], more than 20000 nM in assay [2] and 81.3 nM in assay [4]. Besides, in assay [2] (setting [6]), the “% Emax cf. ACh, M2” value stood at 6%. Moreover, the “% Emax cf. ACh, M3” value in assay [3] (setting [6]) was found to be 3%. Further, in assay [4] (setting [6]), the “% Emax cf. ACh, M4” value came out at 48%.
Regarding `CCOC(=O)N1C2COCC1CC(N1CCC(N3CCCCCC3=O)CC1)C2` (single isomer, unassigned) [Example 6-7 Isomer 1, Ethyl 7-[4-(2-oxoazepan-1-yl)piperidin-1-yl]-3-oxa-9-azabicyclo[3.3.1]nonane-9-carboxylate], the “% Emax cf. ACh, M1” value in assay [1] (setting [7]) came to 111%. Besides, the EC50 in assay [1] was 646 nM; in assay [2], 1020 nM; in assay [3] it was more than 20000 nM; in assay [4], 75.9 nM. For the same compound, the “% Emax cf. ACh, M2” value in assay [2] (setting [7]) stood at 87%. Moreover, the “% Emax cf. ACh, M3” value in assay [3] (setting [7]) is on record as 28%. The “% Emax cf. ACh, M4” value in assay [4] (setting [7]) came to 105%.
For the compound `CCOC(=O)N1C2COCC1CC(N1CCC(N3CCCCCC3=O)CC1)C2` (single isomer, unassigned) [Example 6-7 Isomer 2, Ethyl 7-[4-(2-oxoazepan-1-yl)piperidin-1-yl]-3-oxa-9-azabicyclo[3.3.1]nonane-9-carboxylate], in assay [1] (setting [8]), the “% Emax cf. ACh, M1” value worked out at 41%. The concentration giving a half-maximal response (EC50) is 2190 nM in assay [1], more than 20000 nM in assay [2] and 174 nM in assay [4]. Besides, in assay [2] (setting [8]), the “% Emax cf. ACh, M2” value is 5%. Besides, the “% Emax cf. ACh, M3” value in assay [3] (setting [8]) is 2%. The “% Emax cf. ACh, M4” value in assay [4] (setting [8]) worked out at 52%.
For the compound `CCOC(=O)N1C2COCC1CC(N1CCC(C(=O)NCC3CCC3)CC1)C2` (single isomer, unassigned) [Example 7-3 Isomer 1, Ethyl 7-{4-[(cyclobutylmethyl)carbamoyl]piperidin-1-yl}-3-oxa-9-azabicyclo[3.3.1]nonane-9-carboxylate], the maximal response (Emax) in assay [1] (CHO, read-out: % Emax cf. ACh, M1, CHO cells stably expressing human M1, Emax relative to ACh) turned out to be 100%; in assay [2] (CHO, read-out: % Emax cf. ACh, M2, CHO cells stably expressing human M2, Emax relative to ACh), 62%; in assay [3] (CHO, read-out: % Emax cf. ACh, M3, CHO cells stably expressing human M3, Emax relative to ACh), 57%; in assay [4] (CHO, read-out: % Emax cf. ACh, M4, CHO cells stably expressing human M4, Emax relative to ACh) it was 97%. For the same compound, the EC50 was 35.5 nM in assay [1], 1480 nM in assay [2], more than 20000 nM in assay [3] and 275 nM in assay [4].
